Patent US20110237538A1, “TREATMENT OF LYSOSOMAL STORAGE DISORDERS AND OTHER PROTEOSTATIC DISEASES” (SUMMIT CORPORATION PLC, priority 2008, published 2011)

Target: T1, wild type (wt) beta-glucocerebrosidase (Homo sapiens, UniProt P04062)
T1 construct: The lysates were used as a source for wild type (wt) beta-glucocerebrosidase; endogenous in cells; host or cells: HL60 (ECACC No. 98070106) lysate
T1 sequence (P04062 40-536): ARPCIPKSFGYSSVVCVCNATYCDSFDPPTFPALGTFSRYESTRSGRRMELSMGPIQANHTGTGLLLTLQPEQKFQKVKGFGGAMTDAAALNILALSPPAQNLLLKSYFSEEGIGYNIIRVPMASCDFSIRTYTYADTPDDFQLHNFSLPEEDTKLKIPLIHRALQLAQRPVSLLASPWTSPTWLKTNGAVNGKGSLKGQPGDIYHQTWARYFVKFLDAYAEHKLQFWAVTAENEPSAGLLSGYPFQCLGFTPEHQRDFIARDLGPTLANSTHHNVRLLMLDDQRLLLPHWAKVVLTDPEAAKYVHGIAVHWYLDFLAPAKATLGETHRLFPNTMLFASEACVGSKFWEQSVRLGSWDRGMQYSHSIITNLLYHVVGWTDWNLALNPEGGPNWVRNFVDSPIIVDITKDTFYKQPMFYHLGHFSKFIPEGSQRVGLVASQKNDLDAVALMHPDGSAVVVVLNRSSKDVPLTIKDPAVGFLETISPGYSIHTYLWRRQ
Assay: beta-glucocerebrosidase activity assay in HL60 lysate (4MU-β-D-glc);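 further: fluorometric read-out of 4MU liberated from the substrate (ex 360 nm, em 450 nm) after 37 °C incubation, reaction stopped with sodium carbonate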
Assay type: biochemical
Details: at a concentration of 100 μM, 0.5 mM 4MU-β-D-glc

SMILES | inhibition at 100 µM [%]
O[C@H]1[C@H](O)[C@H](O)CN(CCCCCOCC23CC4CC(CC(C4)C2)C3)C[C@H]1O [Compound 766, (3R,4R,5R,6R)-1-(5-(adamantan-1-yl-methoxy)-pentyl)azepane-3,4,5,6-tetraol] | > 50
CC(O)CC[C@@H]1[C@@H](O)C[C@@H]2[C@H](O)[C@H](O)[C@@H](CO)N21 (stereo partly drawn) [Compound 66, (1S,2R,3R,5R,6S,7aR)-5-(3-hydroxybutyl)-3-(hydroxymethyl)hexahydro-1H-pyrrolizine-1,2,6-triol] | > 50
OC[C@@H]1[C@@H](O)[C@H](O)[C@@H]2[C@@H](O)CCN21 [Compound 17, (1R,2R,3R,7S,7aS)-3-(hydroxymethyl)hexahydro-1H-pyrrolizine-1,2,7-triol] | > 50
C[C@@H]1NC(C(=O)NCc2ccccc2)[C@H](O)[C@H](O)[C@H]1O (stereo partly drawn) [Compound 267, (3S,4R,5S,6S)-N-benzyl-3,4,5-trihydroxy-6-methylpiperidine-2-carboxamide] | > 50
OC[C@H]1[C@@H](O)[C@H](O)[C@H]2[C@H](O)[C@@H](O)CN21 [Compound 129, (1R,2R,3S,6S,7S,7aR)-3-(hydroxymethyl)hexahydro-1H-pyrrolizine-1,2,6,7-tetraol] | > 50
OC[C@@H]1[C@@H](O)[C@H](O)[C@@H](CO)N1CCOCc1ccccc1 [Compound 556, (2R,3R,4R,5R)-1-(2-(benzyloxy)ethyl)-2,5-bis(hydroxymethyl)pyrrolidine-3,4-diol] | > 50
NC[C@H]1[C@@H](O)[C@@H](O)CN1Cc1ccc(-c2ccccc2)cc1 [Compound 686, (2S,3R,4S)-2-(aminomethyl)-1-(biphenyl-4-ylmethyl)pyrrolidine-3,4-diol] | > 50
OC[C@@H]1NC[C@H](O)[C@H]1O [Compound 160, (2S,3S,4S)-2-(hydroxymethyl)pyrrolidine-3,4-diol] | > 50
OCC1OC(CO)(O[C@H]2[C@H](O)[C@H](O)[C@H](CO)N[C@@H]2CO)C(O)C1O (stereo partly drawn) [Compound 77, (2S,3R,4R,5R,6R)-5-(3,4-dihydroxy-2,5-bis(hydroxymethyl)tetrahydrofuran-2-yloxy)-2,6-bis(hydroxymethyl)piperidine-3,4-diol] | > 50
O=C(NC[C@H]1[C@@H](O)[C@@H](O)CN1Cc1ccc(-c2ccccc2)cc1)c1ccc(-c2ccccc2)cc1 [Compound 701, N-(((2S,3R,4S)-1-(biphenyl-4-ylmethyl)-3,4-dihydroxypyrrolidin-2-yl)methyl)biphenyl-4-carboxamide] | > 50
O=C(CCCCO)CCCCCCC[C@@H](O)[C@H]1N[C@H](CO)[C@@H](O)[C@@H]1O [Compound 226, (R)-13-((2R,3R,4R,5R)-3,4-dihydroxy-5-(hydroxymethyl)pyrrolidin-2-yl)-1,13-dihydroxytridecan-5-one] | > 50
OCC1OC(O[C@@H]2[C@@H](O)[C@H](O)[C@]3(O)CC[C@H]2N3)C(O)C(O)C1O (stereo partly drawn) [Compound 105, (1R,2S,3S,4S,5R)-4-(3,4,5-trihydroxy-6-(hydroxymethyl)tetrahydro-2H-pyran-2-yloxy)-8-azabicyclo[3.2.1]octane-1,2,3-triol] | > 50
CCCCNC(=O)C1N[C@@H](C)[C@H](O)[C@@H](O)[C@H]1O (stereo partly drawn) [Compound 265, (3S,4R,5S,6S)-N-butyl-3,4,5-trihydroxy-6-methylpiperidine-2-carboxamide] | > 50
O[C@@H]1[C@@H](O)[C@H](O)[C@]2(O)C[C@@H](O)[C@H]1N2 [Compound 33, (1R,2S,3R,4S,5R,6R)-8-azabicyclo[3.2.1]octane-1,2,3,4,6-pentaol] | > 50
OC1C[C@@]2(O)N[C@@H]1C[C@H](O)[C@H]2O (stereo partly drawn) [Compound 43, (1S,2R,3S,5R)-8-azabicyclo[3.2.1]octane-1,2,3,6-tetraol] | > 50
O=C(NC[C@@H]1[C@@H](O)[C@@H](O)CN1Cc1ccc(-c2ccccc2)cc1)c1ccccc1 [Compound 649, N-(((2R,3R,4S)-1-(biphenyl-4-ylmethyl)-3,4-dihydroxypyrrolidin-2-yl)methyl)benzamide] | > 50
OCCCCCCCCCN1[C@H](CO)[C@@H](O)[C@H](O)[C@H]1CO [Compound 557, (2R,3R,4R,5R)-2,5-bis(hydroxymethyl)-1-(9-hydroxynonyl)pyrrolidine-3,4-diol] | > 50
OC[C@@H]1[C@@H](O)[C@H](O)[C@@H](CO)N1CCCOc1ccccc1 [Compound 343, (2R,3R,4R,5R)-2,5-bis(hydroxymethyl)-1-(3-phenoxypropyl)pyrrolidine-3,4-diol] | > 50
CCCCCCCCCN1C[C@@H](O)[C@H](O)[C@H](O)[C@@H](O)C1 [Compound 736, (3R,4S,5R,6S)-1-nonylazepane-3,4,5,6-tetraol] | > 50
CCCCCCCCCN1[C@H](CO)[C@@H](O)[C@H](O)[C@H]1CO [Compound 555, (2R,3R,4R,5R)-2,5-bis(hydroxymethyl)-1-nonylpyrrolidine-3,4-diol] | > 50
C[C@@H]1CCC[C@@H]2[C@@H](O)[C@@H](O)[C@@H](CO)N12 [Compound 60, (1R,2S,3R,5R,8aR)-3-(hydroxymethyl)-5-methyloctahydroindolizine-1,2-diol] | > 50

Now from value to compound:

inhibition at 100 µM [%] | SMILES
> 50 | OC[C@@H]1[C@@H](O)[C@H](O)[C@@H](O)CN1Cc1ccc(-c2ccccc2)cc1 [Compound 524, (2R,3R,4R,5S)-1-(biphenyl-4-ylmethyl)-2-(hydroxymethyl)piperidine-3,4,5-triol]
> 50 | OC[C@@H]1CNC[C@@H](O)[C@H]1O [Compound 219, (3R,4S,5S)-5-(hydroxymethyl)piperidine-3,4-diol]
> 50 | OC[C@@H]1[C@@H](O)[C@H](O)[C@@H](O)CN1CCCOc1ccccc1 [Compound 288, (2R,3R,4R,5S)-2-(hydroxymethyl)-1-(3-phenoxypropyl)piperidine-3,4,5-triol]
> 50 | OC[C@H]1CNC[C@@H](O)[C@@H]1O [Compound 279, (3R,4R,5R)-5-(Hydroxymethyl)-3,4-piperidinediol]
> 50 | OCCN1C[C@H](CO)[C@@H](O)[C@H](O)C1 [Compound 420, (3R,4R,5R)-1-(2-hydroxyethyl)-5-(hydroxymethyl)piperidine-3,4-diol]
> 50 | CN1C[C@H](O)[C@@H](O)[C@H](O)[C@H]1CO [Compound 3, (2R,3R,4R,5S)-2-(hydroxymethyl)-1-methylpiperidine-3,4,5-triol]
> 50 | OCCN1C[C@@H](CO)[C@H](O)[C@@H](O)C1 [Compound 640, (3S,4S,5S)-1-(2-hydroxyethyl)-5-(hydroxymethyl)piperidine-3,4-diol]
> 50 | O=C(O)CN1C[C@@H](CO)[C@H](O)[C@@H](O)C1 [Compound 451, 2-((3S,4S,5S)-3,4-dihydroxy-5-(hydroxymethyl)piperidin-1-yl)acetic acid]
> 50 | CCCCCCCCCN1C[C@@H](O)[C@H](O)[C@H]1CO [Compound 568, (2R,3R,4R)-2-(hydroxymethyl)-1-nonylpyrrolidine-3,4-diol]
> 50 | CCCCN1C[C@H](CO)[C@@H](O)[C@H](O)C1 [Compound 419, (3R,4R,5R)-1-butyl-5-(hydroxymethyl)piperidine-3,4-diol]
> 50 | O[C@H]1[C@H](O)[C@@H](O)CN2CC[C@H](O)[C@H]12 [Compound 104, (1S,6S,7R,8R,8aR)-octahydroindolizine-1,6,7,8-tetraol]
> 50 | OC[C@@H]1[C@@H](O)[C@H](O)CN1CCCOc1ccccc1 [Compound 349, (2R,3R,4R)-2-(hydroxymethyl)-1-(3-phenoxypropyl)pyrrolidine-3,4-diol]
> 50 | OC[C@H]1[C@@H](O)[C@H](O)CN1CC1CCCCC1 [Compound 320, (2S,3R,4R)-1-(cyclohexylmethyl)-2-(hydroxymethyl)pyrrolidine-3,4-diol]
> 50 | O=C(O)CN1C[C@H](CO)[C@@H](O)[C@H](O)C1 [Compound 450, 2-((3R,4R,5R)-3,4-dihydroxy-5-(hydroxymethyl)piperidin-1-yl)acetic acid]
> 50 | OC[C@@H]1CNC[C@H](O)[C@H]1O [Compound 641, (3S,4S,5S)-5-(hydroxymethyl)piperidine-3,4-diol]

Target: T2, wild type (wt) lysosomal alpha-glucosidase (Homo sapiens, UniProt P10253)
T2 construct: The lysates were used as a source for wild type (wt) lysosomal alpha-glucosidase; endogenous in cells; host or cells: HL60 (ECACC No. 98070106) lysate
Assay: alpha-glucosidase activity assay in HL60 lysate (4MU-α-D-glc);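 further: fluorometric rate of 4MU product release read at 360 nm excitation and 450 nm emission, reactions run at 37 °C in citric phosphate buffer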
Assay type: biochemical
Details: at a concentration of 100 uM, 0.5 mM 4MU-α-D-glc, pH 4.5

SMILES | inhibition at 100 µM [%]
OC[C@@H]1[C@@H](O)[C@H](O)[C@@H](CO)N1CCOCc1ccccc1 [Compound 556, (2R,3R,4R,5R)-1-(2-(benzyloxy)ethyl)-2,5-bis(hydroxymethyl)pyrrolidine-3,4-diol] | > 50
OC[C@@H]1NC[C@H](O)[C@H]1O [Compound 160, (2S,3S,4S)-2-(hydroxymethyl)pyrrolidine-3,4-diol] | > 50
OC[C@@H]1[C@@H](O)[C@H](O)[C@@H](CO)N1CCCOc1ccccc1 [Compound 343, (2R,3R,4R,5R)-2,5-bis(hydroxymethyl)-1-(3-phenoxypropyl)pyrrolidine-3,4-diol] | > 50
OC[C@@H]1NC[C@@H](O)[C@H](O)[C@H]1O [Compound 221, (2S,3S,4S,5R)-2-(hydroxymethyl)piperidine-3,4,5-triol] | > 50
CCCC[C@H]1N[C@H](CO)[C@@H](O)[C@@H](O)[C@@H]1O [Compound 488, (2R,3R,4S,5R,6R)-2-butyl-6-(hydroxymethyl)piperidine-3,4,5-triol] | > 50

The remaining lines, values ahead:

inhibition at 100 µM [%] | SMILES
> 50 | OC[C@@H]1[C@@H](O)[C@H](O)[C@@H](O)CN1Cc1ccc(-c2ccccc2)cc1 [Compound 524, (2R,3R,4R,5S)-1-(biphenyl-4-ylmethyl)-2-(hydroxymethyl)piperidine-3,4,5-triol]
> 50 | OC[C@@H]1[C@@H](O)[C@H](O)[C@@H](O)CN1CCCOc1ccccc1 [Compound 288, (2R,3R,4R,5S)-2-(hydroxymethyl)-1-(3-phenoxypropyl)piperidine-3,4,5-triol]
> 50 | CN1C[C@H](O)[C@@H](O)[C@H](O)[C@H]1CO [Compound 3, (2R,3R,4R,5S)-2-(hydroxymethyl)-1-methylpiperidine-3,4,5-triol]
> 50 | O[C@H]1[C@H](O)[C@@H](O)CN2CC[C@H](O)[C@H]12 [Compound 104, (1S,6S,7R,8R,8aR)-octahydroindolizine-1,6,7,8-tetraol]
